Source: patent publication US20240247031A1, “COMPOSITION FOR TREATING CANCER CONTAINING TELOMERASE-TARGETING GNRH ANTAGONIST-DERIVED PEPTIDE HS1002” (Research & Business Foundation Sungkyunkwan University, priority 2023, published 2024)
Converted amounts (≈) assume the structure as drawn. Where a SMILES comes first, the peptide text is derived from it. [ ]: non-standard residue; d: D form. pGlu = O=C1CC[C@@H](C(=O)O)N1

T1: gonadotropin-releasing hormone (GnRH) receptor (UniProt P30968 1-328, limits assumed)
T1 sequence (looked up): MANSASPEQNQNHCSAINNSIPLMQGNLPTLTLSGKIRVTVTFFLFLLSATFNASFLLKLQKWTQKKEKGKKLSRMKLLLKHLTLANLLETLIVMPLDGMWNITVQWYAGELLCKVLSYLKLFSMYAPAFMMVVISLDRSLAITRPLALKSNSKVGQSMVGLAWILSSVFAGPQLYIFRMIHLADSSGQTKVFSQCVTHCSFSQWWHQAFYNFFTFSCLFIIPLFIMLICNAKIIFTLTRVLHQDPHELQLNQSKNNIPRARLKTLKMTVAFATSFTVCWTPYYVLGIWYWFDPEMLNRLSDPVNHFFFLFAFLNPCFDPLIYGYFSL

B1: peptide HS1002 (peptide)
peptide: [pGlu]HWSYRLRFIP-NHEt
SMILES: CCNC(=O)[C@@H]1CCCN1C(=O)[C@@H](NC(=O)[C@H](Cc1ccccc1)NC(=O)[C@H](CCCNC(=N)N)NC(=O)[C@H](CC(C)C)NC(=O)[C@H](CCCNC(=N)N)NC(=O)[C@H](Cc1ccc(O)cc1)NC(=O)[C@H](CO)NC(=O)[C@H](Cc1c[nH]c2ccccc12)NC(=O)[C@H](Cc1c[nH]cn1)NC(=O)[C@@H]1CCC(=O)N1)[C@@H](C)CC

Experiments:
[1] = tested on: LNCaP; test: cells; type: cell-based, human; conditions: 48 h; for Cytotoxicity (IC50) LNCaP: human
Experimental: (§1) To evaluate anticancer activities of the produced peptides on various types of cancer cells, MTT analysis was performed. Human prostate cancer cell lines (LNCaP, PC3, and DU145), human breast cancer cell lines (MDA-MB-231 and MCF-7), lung cancer cell line (A549), and ovarian cancer cell line (SKOV3) were cultured in RPMI media supplemented with 1% penicillin/streptomycin and 1% fetal bovine serum (all from Life Technologies, Grand Island, NY). The cells were seeded in 96-well plates containing 100 μL of growth media for 24 h. The media were removed, and then 100 μL of the peptide (solvent DPBS) at each concentration was added to each well and incubated at 37° C. for 48 h. After incubation for 48 h, 100 μL of MTT reagent was added to each well. The cells were incubated at 37° C. for 4 h, and then the supernatant was removed. Formazan crystals were dissolved in 100 μL of DMSO with gentle stirring at 37° C. for 10 min. The absorbance per well was measured at 540 nm using a VERSA max microplate reader (Molecular Devices Corp.).

[2] = tested on: MCF-7; test: cells; type: cell-based, human; conditions: for Cytotoxicity (IC50) MCF-7: human, 48 h
Experimental: as §1

[3] = tested on: A549; test: MTT cytotoxicity on various cancer cells (Table 1); type: cell-based, human; conditions: for Cytotoxicity (IC50) A549: human, 48 h
Experimental: as §1

[4] = tested on: DU145; test: MTT cytotoxicity on various cancer cells (Table 1); type: cell-based, human; conditions: for Cytotoxicity (IC50) DU145: human, 48 h
Experimental: as §1

[5] = tested on: PC3; test: MTT cytotoxicity on various cancer cells (Table 1); type: cell-based, human; conditions: for Cytotoxicity (IC50) PC3: human, 48 h
Experimental: as §1

[6] = tested on: SKOV3; test: MTT cytotoxicity on various cancer cells (Table 1); type: cell-based, human; conditions: for Cytotoxicity (IC50) SKOV3: human, 48 h
Experimental: as §1

[7] = target: T1, gonadotropin-releasing hormone (GnRH) …; test: cell-based or functional assay

Molecule	Cytotoxicity (IC50) LNCaP [1]	Cytotoxicity (IC50) MCF-7 [2]	Cytotoxicity (IC50) A549 [3]	Cytotoxicity (IC50) DU145 [4]	Cytotoxicity (IC50) PC3 [5]	Cytotoxicity (IC50) SKOV3 [6]	IC50 ([1]; Homo sapiens, LNCaP, read-out: Cytotoxicity (IC50) LNCaP)	IC50 ([2]; Homo sapiens, MCF7, 48 h, read-out: Cytotoxicity (IC50) MCF-7)	IC50 ([3]; Homo sapiens, A549, 48 h, read-out: Cytotoxicity (IC50) A549)	IC50 ([4]; Homo sapiens, DU-145, 48 h, read-out: Cytotoxicity (IC50) DU145)	IC50 ([5]; Homo sapiens, PC-3, 48 h, read-out: Cytotoxicity (IC50) PC3)	IC50 ([6]; Homo sapiens, SK-OV-3, 48 h, read-out: Cytotoxicity (IC50) SKOV3)	CRE-luciferase activity in HEK293-GnRHR cells [7]
CC(C)C[C@H](NC(=O)CNC(=O)[C@@H](NC(=O)[C@H](CO)NC(=O)[C@H](CC(C)C)NC(=O)[C@H](CC(C)C)NC(=O)[C@H](C)NC(=O)[C@@H]1CCCN1C(=O)[C@H](CCCNC(=N)N)NC(=O)[C@H](C)NC(=O)[C@@H](N)CCC(=O)O)[C@@H](C)O)C(=O)N[C@@H](CCCNC(=N)N)C(=O)N1CCC[C@H]1C(=O)N[C@@H](CCCCN)C(=O)O [HS1006] (H-EARPALLSTGLRPK-OH; N-terminus and C-terminus assumed)	14.17 ± 0.47 µg/mL	55.24 ± 2.41 µg/mL	10.68 ± 0.25 µg/mL	19.46 ± 0.26 µg/mL	15.2 ± 1.12 µg/mL	13.91 ± 1.17 µg/mL	–	–	–	–	–	–	–
CC(C)C[C@H](NC(=O)[C@H](C)NC(=O)[C@@H]1CCCN1C(=O)[C@H](CCCNC(=N)N)NC(=O)[C@H](C)NC(=O)[C@@H](N)CCC(=O)O)C(=O)N[C@@H](CC(C)C)C(=O)N[C@@H](CO)C(=O)N[C@H](C(=O)N[C@@H](CCCNC(=N)N)C(=O)N[C@@H](Cc1ccccc1)C(=O)N[C@@H](CCCNC(=N)N)C(=O)N1CCC[C@H]1C(=O)N[C@@H](CCCCN)C(=O)O)[C@@H](C)O [HS1005] (H-EARPALLSTRFRPK-OH; N-terminus and C-terminus assumed)	11.23 ± 1.01 µg/mL	44.15 ± 2.63 µg/mL	14.75 ± 0.83 µg/mL	16.17 ± 1.28 µg/mL	13.31 ± 1.05 µg/mL	14.08 ± 1.04 µg/mL	–	–	–	–	–	–	–
CC(=O)O[C@H]1C(=O)[C@@]2(C)[C@H]([C@H](OC(=O)c3ccccc3)[C@]3(O)C[C@H](OC(=O)[C@H](O)[C@@H](NC(=O)c4ccccc4)c4ccccc4)C(C)=C1C3(C)C)[C@]1(OC(C)=O)CO[C@@H]1C[C@@H]2O [PTX, Paclitaxel, reference compound]	–	–	–	–	–	–	0.81 ± 0.09 µg/mL (≈ 0.949 µM)	9.27 ± 1.12 µg/mL (≈ 10.9 µM)	3.62 ± 0.04 µg/mL (≈ 4.24 µM)	0.73 ± 0.04 µg/mL (≈ 0.855 µM)	59.4 ± 3.21 µg/mL (≈ 69.6 µM)	5.41 ± 0.19 µg/mL (≈ 6.34 µM)	–
CCNC(=O)[C@@H]1CCCN1C(=O)[C@@H](NC(=O)[C@H](Cc1ccccc1)NC(=O)[C@H](CCCNC(=N)N)NC(=O)[C@@H]1CCCN1C(=O)[C@H](C)NC(=O)[C@H](Cc1ccc(O)cc1)NC(=O)[C@H](CO)NC(=O)[C@H](Cc1c[nH]c2ccccc12)NC(=O)[C@H](Cc1c[nH]cn1)NC(=O)[C@@H]1CCC(=O)N1)[C@@H](C)CC [HS1003] ([pGlu]HWSYAPRFIP-NHEt; C-terminus assumed)	10.9 ± 0.48 µg/mL	47.28 ± 2.05 µg/mL	9.48 ± 0.08 µg/mL	12.37 ± 0.31 µg/mL	24.05 ± 1.13 µg/mL	5.79 ± 0.38 µg/mL	–	–	–	–	–	–	–
CCNC(=O)[C@@H]1CCCN1C(=O)[C@@H](NC(=O)[C@H](Cc1ccccc1)NC(=O)[C@H](C)NC(=O)[C@H](CC(C)C)NC(=O)[C@H](CCCNC(=N)N)NC(=O)[C@H](Cc1ccc(O)cc1)NC(=O)[C@H](CO)NC(=O)[C@H](Cc1c[nH]c2ccccc12)NC(=O)[C@H](Cc1c[nH]cn1)NC(=O)[C@@H]1CCC(=O)N1)[C@@H](C)CC [HS1004] ([pGlu]HWSYRLAFIP-NHEt; C-terminus assumed)	9.97 ± 0.85 µg/mL	37.47 ± 1.58 µg/mL	–	17.54 ± 0.74 µg/mL	16.49 ± 0.74 µg/mL	5.19 ± 0.82 µg/mL	–	–	–	–	–	–	–
CC(C)C[C@H](NC(=O)[C@H](C)NC(=O)[C@@H]1CCCN1C(=O)[C@H](CCCNC(=N)N)NC(=O)[C@H](C)NC(=O)[C@@H](N)CCC(=O)O)C(=O)N[C@@H](CC(C)C)C(=O)N[C@@H](CO)C(=O)N[C@H](C(=O)N[C@@H](CCCNC(=N)N)C(=O)N[C@@H](CC(C)C)C(=O)N[C@@H](CCCNC(=N)N)C(=O)N1CCC[C@H]1C(=O)O)[C@@H](C)O [HS1001] (H-EARPALLSTRLRP-OH; N-terminus and C-terminus assumed)	6.55 ± 0.96 µg/mL	48.26 ± 1.23 µg/mL	4.18 ± 0.15 µg/mL	7.82 ± 0.37 µg/mL	8.05 ± 1.58 µg/mL	6.14 ± 0.79 µg/mL	–	–	–	–	–	–	–
B1	–	–	–	–	–	–	–	–	–	–	–	–	2 fold
